Assay results from PubChem BioAssay AID1963978 (Molecular Pharmacology Branch, DTP, NCI, 2024).

Test system: 616215-338-R-J1-PDC spheroids with HUVEC/MSC, viability
Assay: Anticancer human tumor 616215-338-R-J1-PDC patient-derived colon adenocarcinoma cell line growth inhibition [PI3K]
Settings: for IC50: curve of first compound; for viability, T/C: stronger effect = lower value
Procedure, shortened: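 Combination activity was assessed by viability in multicellular tumor spheroids carrying HUVEC and MSC components. Agents were tested with PI3K inhibitors from a Cmax-based top dose (or 10 microM) downward in half-log increments.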

[1] = second compound 0.0316 µM, first compound 0.00316 µM
[2] = second compound 0.0316 µM, first compound 0.01 µM
[3] = second compound 0.0316 µM, first compound 0.0316 µM
[4] = second compound 0.0316 µM, first compound 0.1 µM
[5] = second compound 0.1 µM, first compound 0.00316 µM
[6] = second compound 0.1 µM, first compound 0.01 µM
[7] = second compound 0.1 µM, first compound 0.0316 µM
[8] = second compound 0.1 µM, first compound 0.1 µM
[9] = second compound 0.316 µM, first compound 0.00316 µM
[10] = second compound 0.316 µM, first compound 0.01 µM
[11] = second compound 0.316 µM, first compound 0.0316 µM
[12] = second compound 0.316 µM, first compound 0.1 µM
[13] = second compound 1 µM, first compound 0.00316 µM
[14] = second compound 1 µM, first compound 0.01 µM
[15] = second compound 1 µM, first compound 0.0316 µM
[16] = second compound 1 µM, first compound 0.1 µM
[17] = second compound 0.00316 µM, first compound 0.0316 µM
[18] = second compound 0.00316 µM, first compound 0.1 µM
[19] = second compound 0.00316 µM, first compound 0.316 µM
[20] = second compound 0.00316 µM, first compound 1 µM
[21] = second compound 0.01 µM, first compound 0.0316 µM
[22] = second compound 0.01 µM, first compound 0.1 µM
[23] = second compound 0.01 µM, first compound 0.316 µM
[24] = second compound 0.01 µM, first compound 1 µM
[25] = second compound 0.0316 µM, first compound 0.316 µM
[26] = second compound 0.0316 µM, first compound 1 µM
[27] = second compound 0.1 µM, first compound 0.316 µM
[28] = second compound 0.1 µM, first compound 1 µM
[29] = second compound 0.316 µM, first compound 0.316 µM
[30] = second compound 0.316 µM, first compound 1 µM
[31] = second compound 1 µM, first compound 0.316 µM
[32] = second compound 1 µM, first compound 1 µM
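Also: spheroids exposed to agents for seven days before the viability read.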

CC(C)n1nc(-c2ccc3oc(N)nc3c2)c2c(N)ncnc21 + Cc1nc(NC(=O)N2CCCC2C(N)=O)sc1-c1ccnc(C(C)(C)C(F)(F)F)c1
IC50 (second compound 0.0316 µM): > 0.1 µM | IC50 (second compound 0.1 µM): > 0.1 µM | IC50 (second compound 0.316 µM): > 0.1 µM | IC50 (second compound 1 µM): > 0.1 µM | IC50 (second compound 3.16 µM): > 0.1 µM | IC50 (second compound 10 µM): 0.0532 µM | viability, T/C (second compound 0.0316 µM, first compound 0.000316 µM): 100% | viability, T/C (second compound 0.0316 µM, first compound 0.001 µM): 88.7% | viability, T/C [1]: 93.9% | viability, T/C [2]: 97.2% | viability, T/C [3]: 105% | viability, T/C [4]: 93.2% | viability, T/C (second compound 0.1 µM, first compound 0.000316 µM): 98.5% | viability, T/C (second compound 0.1 µM, first compound 0.001 µM): 106% | viability, T/C [5]: 96.8% | viability, T/C [6]: 90.8% | viability, T/C [7]: 114% | viability, T/C [8]: 87.1% | viability, T/C (second compound 0.316 µM, first compound 0.000316 µM): 91.2% | viability, T/C (second compound 0.316 µM, first compound 0.001 µM): 91.2% | viability, T/C [9]: 91.4% | viability, T/C [10]: 96.2% | viability, T/C [11]: 111% | viability, T/C [12]: 82.1% | viability, T/C (second compound 1 µM, first compound 0.000316 µM): 102% | viability, T/C (second compound 1 µM, first compound 0.001 µM): 100% | viability, T/C [13]: 102% | viability, T/C [14]: 99.5% | viability, T/C [15]: 106% | viability, T/C [16]: 79.1% | viability, T/C (second compound 3.16 µM, first compound 0.000316 µM): 99.7% | viability, T/C (second compound 3.16 µM, first compound 0.001 µM): 102% | viability, T/C (second compound 3.16 µM, first compound 0.00316 µM): 91% | viability, T/C (second compound 3.16 µM, first compound 0.01 µM): 95.4% | viability, T/C (second compound 3.16 µM, first compound 0.0316 µM): 83.8% | viability, T/C (second compound 3.16 µM, first compound 0.1 µM): 56.7% | viability, T/C (second compound 10 µM, first compound 0.000316 µM): 94.4% | viability, T/C (second compound 10 µM, first compound 0.001 µM): 85.9% | viability, T/C (second compound 10 µM, first compound 0.00316 µM): 86.2% | viability, T/C (second compound 10 µM, first compound 0.01 µM): 80.2% | viability, T/C (second compound 10 µM, first compound 0.0316 µM): 56.7% | viability, T/C (second compound 10 µM, first compound 0.1 µM): 41.4%

C#Cc1c(F)ccc2cc(O)cc(-c3ncc4c(N5CC6CCC(C5)N6)nc(OCC56CCCN5CC(F)C6)nc4c3F)c12 (stereo unspecified) + COc1c(OCCCN2CCOCC2)ccc2c3n(c(=NC(=O)c4cnc(N)nc4)nc12)CCN3
IC50 (second compound 0.00316 µM): > 10 µM | IC50 (second compound 0.01 µM): 7.8 µM | IC50 (second compound 0.0316 µM): 8.36 µM | IC50 (second compound 0.1 µM): 5.99 µM | IC50 (second compound 0.316 µM): < 0.0316 µM | IC50 (second compound 1 µM): < 0.0316 µM | viability, T/C [17]: 95.5% | viability, T/C [18]: 89.2% | viability, T/C [19]: 90.4% | viability, T/C [20]: 91.4% | viability, T/C (second compound 0.00316 µM, first compound 3.16 µM): 94.9% | viability, T/C (second compound 0.00316 µM, first compound 10 µM): 72% | viability, T/C [21]: 95.5% | viability, T/C [22]: 89.7% | viability, T/C [23]: 91.8% | viability, T/C [24]: 102% | viability, T/C (second compound 0.01 µM, first compound 3.16 µM): 73.6% | viability, T/C (second compound 0.01 µM, first compound 10 µM): 43.5% | viability, T/C [3]: 101% | viability, T/C [4]: 98.1% | viability, T/C [25]: 95.4% | viability, T/C [26]: 106% | viability, T/C (second compound 0.0316 µM, first compound 3.16 µM): 81.5% | viability, T/C (second compound 0.0316 µM, first compound 10 µM): 44.1% | viability, T/C [7]: 94% | viability, T/C [8]: 95.9% | viability, T/C [27]: 90.2% | viability, T/C [28]: 93.7% | viability, T/C (second compound 0.1 µM, first compound 3.16 µM): 74.7% | viability, T/C (second compound 0.1 µM, first compound 10 µM): 30.3% | viability, T/C [11]: 38.2% | viability, T/C [12]: 42.4% | viability, T/C [29]: 38.2% | viability, T/C [30]: 30.9% | viability, T/C (second compound 0.316 µM, first compound 3.16 µM): 32.4% | viability, T/C (second compound 0.316 µM, first compound 10 µM): 17.9% | viability, T/C [15]: 19.8% | viability, T/C [16]: 27.1% | viability, T/C [31]: 17.3% | viability, T/C [32]: 10.8% | viability, T/C (second compound 1 µM, first compound 3.16 µM): 6.21% | viability, T/C (second compound 1 µM, first compound 10 µM): 0.88%

CCN1CCN(Cc2ccc(Nc3ncc(F)c(-c4cc(F)c5nc(C)n(C(C)C)c5c4)n3)nc2)CC1 + COc1c(OCCCN2CCOCC2)ccc2c3n(c(=NC(=O)c4cnc(N)nc4)nc12)CCN3
IC50 (second compound 0.00316 µM): > 1 µM | IC50 (second compound 0.01 µM): > 1 µM | IC50 (second compound 0.0316 µM): > 1 µM | IC50 (second compound 0.1 µM): 0.185 µM | IC50 (second compound 0.316 µM): < 0.00316 µM | IC50 (second compound 1 µM): < 0.00316 µM | viability, T/C (second compound 0.00316 µM, first compound 0.00316 µM): 80.7% | viability, T/C (second compound 0.00316 µM, first compound 0.01 µM): 104% | viability, T/C [17]: 100% | viability, T/C [18]: 97.3% | viability, T/C [19]: 128% | viability, T/C [20]: 90.8% | viability, T/C (second compound 0.01 µM, first compound 0.00316 µM): 89.5% | viability, T/C (second compound 0.01 µM, first compound 0.01 µM): 105% | viability, T/C [21]: 104% | viability, T/C [22]: 118% | viability, T/C [23]: 138% | viability, T/C [24]: 87.6% | viability, T/C [1]: 108% | viability, T/C [2]: 109% | viability, T/C [3]: 103% | viability, T/C [4]: 106% | viability, T/C [25]: 112% | viability, T/C [26]: 55.9% | viability, T/C [5]: 87.8% | viability, T/C [6]: 80.3% | viability, T/C [7]: 64.9% | viability, T/C [8]: 54.9% | viability, T/C [27]: 47.1% | viability, T/C [28]: 34.7% | viability, T/C [9]: 36.1% | viability, T/C [10]: 33.8% | viability, T/C [11]: 33% | viability, T/C [12]: 40.7% | viability, T/C [29]: 33.4% | viability, T/C [30]: 32% | viability, T/C [13]: 22.3% | viability, T/C [14]: 23.4% | viability, T/C [15]: 20.6% | viability, T/C [16]: 24.6% | viability, T/C [31]: 27.2% | viability, T/C [32]: 31.1%
